Columns and labels:
[1] = molecular target: T1, Muscarinic acetylcholine receptor M1 (Rattus norvegicus, UniProt P08482)
T1 sequence (P08482 whole entry): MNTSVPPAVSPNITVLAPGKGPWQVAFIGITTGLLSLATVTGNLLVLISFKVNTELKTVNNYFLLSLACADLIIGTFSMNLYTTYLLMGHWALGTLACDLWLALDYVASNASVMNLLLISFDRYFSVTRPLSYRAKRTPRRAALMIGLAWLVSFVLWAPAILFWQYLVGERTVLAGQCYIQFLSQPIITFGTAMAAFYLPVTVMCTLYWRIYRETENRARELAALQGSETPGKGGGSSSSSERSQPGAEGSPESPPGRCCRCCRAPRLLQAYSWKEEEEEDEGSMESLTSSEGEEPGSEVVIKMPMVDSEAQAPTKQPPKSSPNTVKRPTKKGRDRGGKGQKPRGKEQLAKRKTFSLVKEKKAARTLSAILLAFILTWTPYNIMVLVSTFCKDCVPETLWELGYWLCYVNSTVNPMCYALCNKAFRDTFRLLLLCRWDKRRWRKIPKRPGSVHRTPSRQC

[2] = molecular target: Muscarinic acetylcholine receptor M3 (Rattus norvegicus, UniProt P08483)
[3] = molecular target: T2, Muscarinic acetylcholine receptor M2 (Rattus norvegicus, UniProt P10980)
T2 sequence (P10980 whole entry): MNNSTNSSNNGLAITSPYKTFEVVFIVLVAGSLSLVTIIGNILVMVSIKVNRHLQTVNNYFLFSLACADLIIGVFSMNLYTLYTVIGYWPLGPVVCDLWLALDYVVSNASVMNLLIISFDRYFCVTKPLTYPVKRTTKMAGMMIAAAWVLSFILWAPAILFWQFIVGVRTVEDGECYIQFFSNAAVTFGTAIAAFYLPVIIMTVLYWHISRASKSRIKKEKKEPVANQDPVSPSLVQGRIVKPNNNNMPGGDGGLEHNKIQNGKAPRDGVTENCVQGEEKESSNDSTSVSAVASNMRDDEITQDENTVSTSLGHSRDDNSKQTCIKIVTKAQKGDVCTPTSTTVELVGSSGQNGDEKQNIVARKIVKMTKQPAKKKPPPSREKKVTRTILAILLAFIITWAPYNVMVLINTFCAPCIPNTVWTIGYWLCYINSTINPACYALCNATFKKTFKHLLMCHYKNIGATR

Muscarinic acetylcholine receptor M3, sequence (P08483 whole entry): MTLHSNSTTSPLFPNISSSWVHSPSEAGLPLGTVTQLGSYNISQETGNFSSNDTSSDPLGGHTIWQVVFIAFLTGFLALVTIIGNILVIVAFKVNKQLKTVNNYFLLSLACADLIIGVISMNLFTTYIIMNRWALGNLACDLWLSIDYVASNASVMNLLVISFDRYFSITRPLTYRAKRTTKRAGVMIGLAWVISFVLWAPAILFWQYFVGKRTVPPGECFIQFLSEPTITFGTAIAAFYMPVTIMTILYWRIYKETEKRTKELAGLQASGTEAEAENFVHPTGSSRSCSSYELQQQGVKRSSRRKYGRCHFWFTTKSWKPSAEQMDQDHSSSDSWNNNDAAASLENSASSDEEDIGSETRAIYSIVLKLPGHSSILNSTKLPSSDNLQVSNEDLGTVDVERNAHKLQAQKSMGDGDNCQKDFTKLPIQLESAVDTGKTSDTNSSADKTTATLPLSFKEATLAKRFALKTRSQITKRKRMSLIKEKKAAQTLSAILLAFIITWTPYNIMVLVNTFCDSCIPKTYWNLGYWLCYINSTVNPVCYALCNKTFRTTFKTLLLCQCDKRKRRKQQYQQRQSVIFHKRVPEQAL

| Ki [1] [nM] | Ki [2] [nM] | Compound | Ki [3] [nM] |
| --- | --- | --- | --- |
| 398 | 1260 | CCN(CC)CC1CCCCN1CC(=O)N1c2ccccc2C(=O)Nc2cccnc21 (centres undefined) [(AF-DX 116) 11-[2-(2-Diethylaminomethyl-piperidin-1-yl)-acetyl]-5,11-dihydro-benzo[e]pyrido[3,2-b][1,4]diazepin-6-one] | – |
| 12.6 | 6.31 | CC(=O)N[C@H]1CO[C@H](COS(=O)(=O)O)[C@@H](O[C@@H]2O[C@H](C(=O)O)[C@@H](O[C@H]3O[C@H](CO)[C@@H](O[C@@H]4O[C@@H](C(=O)O)[C@@H](O)[C@H](O)[C@H]4OS(=O)(=O)O)[C@H](OS(=O)(=O)O)[C@H]3NS(=O)(=O)O)[C@H](O)[C@H]2OS(=O)(=O)O)[C@@H]1O [CAS_9050-30-0] | 126 |
| – | 316 | COc1ccccc1CNCCCCCCNCCCCCCCCNCCCCCCNCc1ccccc1OC [METHOCTRAMINE] | – |

| Compound | Ki [1] [nM] | Ki [2] [nM] | Ki [3] [nM] |
| --- | --- | --- | --- |
| C[C@H]1OC(=O)C2C[C@H]3CCCC[C@@H]3[C@@H](/C=C/[C@@H]3CCC[C@H](C)N3C)C21 (some centres undefined) [HIMBACINE] | 100 | 126 | 7.94 |

Reference: BindingDB's records for doi:10.1146/annurev.pa.30.040190.003221 (National Institute For Medical Research, 1990)
